Data from patent US20250154173A1 (Merck Sharp & Dohme LLC, priority 2023, published 2025).

target: T1, GST-RIPK1 (recombinant GST-RIPK1 kinase domain (residues 1-327)) (Homo sapiens, UniProt Q13546); assay: RIPK1-ADP-Glo Enzymatic Assay; type: biochemical; settings: ten-point titration, top compound concentration of 100000 nM; 25 nM GST-RIPK1, 300 μM ATP, 3 μM dephosphorylated-MBP; 30 min pre-incubation, 150 min reaction
T1 construct: recombinant GST-RIPK1 kinase domain (residues 1-327) enzyme produced from baculovirus-transfected Sf21 cells; host or cells: baculovirus-transfected Sf21 insect cells
T1 sequence (Q13546 1-327): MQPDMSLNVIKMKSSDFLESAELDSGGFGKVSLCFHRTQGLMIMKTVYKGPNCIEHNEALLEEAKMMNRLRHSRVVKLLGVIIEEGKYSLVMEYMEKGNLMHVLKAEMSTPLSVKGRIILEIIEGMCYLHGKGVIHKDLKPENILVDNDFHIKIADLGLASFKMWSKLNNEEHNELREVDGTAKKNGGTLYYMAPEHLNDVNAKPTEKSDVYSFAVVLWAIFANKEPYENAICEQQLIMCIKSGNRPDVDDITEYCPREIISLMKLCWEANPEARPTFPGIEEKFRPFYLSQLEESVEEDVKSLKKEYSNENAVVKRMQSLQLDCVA
In short: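 ADP-Glo luminescence quantifies ADP formed over 150 minutes by 25 nM Sf21-produced GST-RIPK1 (1-327) using 300 μM ATP and 3 μM dephosphorylated MBP, following 30-minute compound preincubation at 1% DMSO. Ten-point 1:3 series from 100000 nM gave EC50 via four-parameter sigmoidal regression.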

Row | EC50 | Structure (SMILES)
1 | 53 nM | N#Cc1ccnc(O[C@H]2C[C@@]3(C2)O[C@@H]2CC[C@@H](c4cc(F)cc(F)c4)N2C3=O)n1 [Example 9.20, 2-{[(1r,3R,5′S,7a′R)-5′-(3,5-difluorophenyl)-3′-oxotetrahydro-3′H-spiro[cyclobutane-1,2′-pyrrolo[2,1-b][1,3]oxazol]-3-yl]oxy}pyrimidine-4-carbonitrile]
2 | 14 nM | O=C1N2[C@@H](CC[C@H]2c2cc(F)cc(F)c2)O[C@]12C[C@H](Oc1nccc3nccn13)C2 [Example 9.21, (1r,3R,5′S,7a′R)-5′-(3,5-difluorophenyl)-3-[(imidazo[1,2-c]pyrimidin-5-yl)oxy]tetrahydro-3′H-spiro[cyclobutane-1,2′-pyrrolo[2,1-b][1,3]oxazol]-3′-one]
3 | 11 nM | O=C1N2[C@@H](CC[C@H]2c2cc(F)cc(F)c2)O[C@]12C[C@H](Oc1ncnn3cccc13)C2 [Example 9.22, (1r,3R,5′S,7a′R)-5′-(3,5-difluorophenyl)-3-[(pyrrolo[2,1-f][1,2,4]triazin-4-yl)oxy]tetrahydro-3′H-spiro[cyclobutane-1,2′-pyrrolo[2,1-b][1,3]oxazol]-3′-one]
4 | 55 nM | O=C1N2[C@@H](CC[C@H]2c2cc(F)cc(F)c2)O[C@]12C[C@H](Oc1nccc3ncnn13)C2 [Example 9.23, (1r,3R,5′S,7a′R)-5′-(3,5-difluorophenyl)-3-[([1,2,4]triazolo[1,5-c]pyrimidin-5-yl)oxy]tetrahydro-3′H-spiro[cyclobutane-1,2′-pyrrolo[2,1-b][1,3]oxazol]-3′-one]
5 | 11 nM | O=C1N2[C@@H](CC[C@H]2c2ccccc2)O[C@]12C[C@H](Oc1ncnn3cccc13)C2 [Example 9.24, (1r,3R,5′S,7a′R)-5′-phenyl-3-[(pyrrolo[2,1-f][1,2,4]triazin-4-yl)oxy]tetrahydro-3′H-spiro[cyclobutane-1,2′-pyrrolo[2,1-b][1,3]oxazol]-3′-one]
6 | 210 nM | O=C1N2[C@@H](CC[C@H]2c2cc(F)cc(F)c2)O[C@]12C[C@H](Oc1cccn3nnnc13)C2 [Example 9.25, (1r,3R,5′S,7a′R)-5′-(3,5-difluorophenyl)-3-[(tetrazolo[1,5-a]pyridin-8-yl)oxy]tetrahydro-3′H-spiro[cyclobutane-1,2′-pyrrolo[2,1-b][1,3]oxazol]-3′-one]
7 | 276 nM | O=C1N2[C@@H](CC[C@H]2c2cc(F)cc(F)c2)O[C@]12C[C@H](Oc1cccc3ncnn13)C2 [Example 9.26, (1r,3R,5′S,7a′R)-5′-(3,5-difluorophenyl)-3-[([1,2,4]triazolo[1,5-a]pyridin-5-yl)oxy]tetrahydro-3′H-spiro[cyclobutane-1,2′-pyrrolo[2,1-b][1,3]oxazol]-3′-one]
8 | 12 nM | O=C1N2[C@@H](CC[C@H]2c2ccc(F)cc2)O[C@]12C[C@H](Oc1ncnn3cccc13)C2 [Example 9.27, (1r,3R,5′S,7a′R)-5′-(4-fluorophenyl)-3-[(pyrrolo[2,1-f][1,2,4]triazin-4-yl)oxy]tetrahydro-3′H-spiro[cyclobutane-1,2′-pyrrolo[2,1-b][1,3]oxazol]-3′-one]
9 | 16 nM | N#Cc1ccnc(O[C@H]2C[C@@]3(C2)O[C@@H]2CC[C@@H](c4ccc(F)cc4)N2C3=O)c1 [Example 9.28, 2-{[(1r,3R,5′S,7a′R)-5′-(4-fluorophenyl)-3′-oxotetrahydro-3′H-spiro[cyclobutane-1,2′-pyrrolo[2,1-b][1,3]oxazol]-3-yl]oxy}pyridine-4-carbonitrile]
10 | 47 nM | Cc1nc(O[C@H]2C[C@@]3(C2)O[C@@H]2CC[C@@H](c4cc(F)cc(F)c4)N2C3=O)c2cccn2n1 [Example 9.29, (1r,3R,5′S,7a′R)-5′-(3,5-difluorophenyl)-3-[(2-methylpyrrolo[2,1-f][1,2,4]triazin-4-yl)oxy]tetrahydro-3′H-spiro[cyclobutane-1,2′-pyrrolo[2,1-b][1,3]oxazol]-3′-one]
11 | 9 nM | O=C1N2[C@@H](CC[C@H]2c2cc(F)cc(F)c2)O[C@]12C[C@H](Oc1ncnc3sccc13)C2 [Example 9.30, (1r,3R,5′S,7a′R)-5′-(3,5-difluorophenyl)-3-[(thieno[2,3-d]pyrimidin-4-yl)oxy]tetrahydro-3′H-spiro[cyclobutane-1,2′-pyrrolo[2,1-b][1,3]oxazol]-3′-one]
12 | 9 nM | O=C1N2[C@@H](CC[C@H]2c2cc(F)cc(F)c2)O[C@]12C[C@H](Oc1ncnc3occc13)C2 [Example 9.31, (1r,3R,5′S,7a′R)-5′-(3,5-difluorophenyl)-3-[(furo[2,3-d]pyrimidin-4-yl)oxy]tetrahydro-3′H-spiro[cyclobutane-1,2′-pyrrolo[2,1-b][1,3]oxazol]-3′-one]
13 | 8 nM | Cc1cc2c(O[C@H]3C[C@@]4(C3)O[C@@H]3CC[C@@H](c5cc(F)cc(F)c5)N3C4=O)ncnc2o1 [Example 9.32, (1r,3R,5′S,7a′R)-5′-(3,5-difluorophenyl)-3-[(6-methylfuro[2,3-d]pyrimidin-4-yl)oxy]tetrahydro-3′H-spiro[cyclobutane-1,2′-pyrrolo[2,1-b][1,3]oxazol]-3′-one]
14 | 8 nM | Cc1cc2c(O[C@H]3C[C@@]4(C3)O[C@@H]3CC[C@@H](c5cc(F)cc(F)c5)N3C4=O)ncnc2s1 [Example 9.33, (1r,3R,5′S,7a′R)-5′-(3,5-difluorophenyl)-3-[(6-methylthieno[2,3-d]pyrimidin-4-yl)oxy]tetrahydro-3′H-spiro[cyclobutane-1,2′-pyrrolo[2,1-b][1,3]oxazol]-3′-one]
15 | 19 nM | O=C1N2[C@@H](CC[C@H]2c2ccc(F)cc2)O[C@]12C[C@H](Oc1nccc3nccn13)C2 [Example 9.34, (1r,3R,5′S,7a′R)-5′-(4-fluorophenyl)-3-[(imidazo[1,2-c]pyrimidin-5-yl)oxy]tetrahydro-3′H-spiro[cyclobutane-1,2′-pyrrolo[2,1-b][1,3]oxazol]-3′-one]
16 | 16 nM | O=C1N2[C@@H](CC[C@H]2c2cc(F)cc(F)c2)O[C@]12C[C@H](Oc1cccnc1Cl)C2 [Example 9.36, (5′S,7a′R)-3-[(2-chloropyridin-3-yl)oxy]-5′-(3,5-difluorophenyl)tetrahydro-3′H-spiro[cyclobutane-1,2′-pyrrolo[2,1-b][1,3]oxazol]-3′-one]
17 | 19 nM | O=C1N2[C@@H](CC[C@H]2c2cc(F)cc(F)c2)OC12CC(Oc1ccc(F)cn1)C2 (stereo partly drawn) [Example 9.37, (5′S,7a′R)-5′-(3,5-difluorophenyl)-3-[(5-fluoropyridin-2-yl)oxy]tetrahydro-3′H-spiro[cyclobutane-1,2′-pyrrolo[2,1-b][1,3]oxazol]-3′-one]
18 | 29 nM | O=C1N2[C@@H](CC[C@H]2c2cc(F)cc(F)c2)OC12CC(Oc1ncccc1F)C2 (stereo partly drawn) [Example 9.38, (5′S,7a′R)-5′-(3,5-difluorophenyl)-3-[(3-fluoropyridin-2-yl)oxy]tetrahydro-3′H-spiro[cyclobutane-1,2′-pyrrolo[2,1-b][1,3]oxazol]-3′-one]
19 | 47 nM | O=C1N2[C@@H](CC[C@H]2c2cc(F)cc(F)c2)OC12CC(Oc1ncccc1F)C2 (stereo partly drawn) [Example 9.39, (5′S,7a′R)-5′-(3,5-difluorophenyl)-3-[(3-fluoropyridin-2-yl)oxy]tetrahydro-3′H-spiro[cyclobutane-1,2′-pyrrolo[2,1-b][1,3]oxazol]-3′-one]
20 | 21 nM | N#Cc1cc(O[C@H]2C[C@@]3(C2)O[C@@H]2CC[C@@H](c4cnccn4)N2C3=O)ncn1 [Example 9.42, 6-(((5′S,7a′R)-3′-oxo-5′-(pyrazin-2-yl)tetrahydro-3′H-spiro[cyclobutane-1,2′-pyrrolo[2,1-b]oxazol]-3-yl)oxy)pyrimidine-4-carbonitrile]
21 | 353 nM | N#Cc1cc(O[C@H]2C[C@]3(C2)O[C@@H]2CC[C@@H](c4ccccc4F)N2C3=O)ncn1 [Example 9.43, 6-{[(5′S,7a′R)-5′-(2-fluorophenyl)-3′-oxotetrahydro-3′H-spiro[cyclobutane-1,2′-pyrrolo[2,1-b][1,3]oxazol]-3-yl]oxy}pyrimidine-4-carbonitrile]
22 | 28 nM | N#Cc1cc(F)cc([C@@H]2CC[C@H]3O[C@]4(C[C@H](Oc5cc(C#N)ncn5)C4)C(=O)N32)c1 [Example 9.44, 6-(((5′S,7a′R)-5′-(3-cyano-5-fluorophenyl)-3′-oxotetrahydro-3′H-spiro[cyclobutane-1,2′-pyrrolo[2,1-b]oxazol]-3-yl)oxy)pyrimidine-4-carbonitrile]
23 | 233 nM | O=C1N2[C@@H](CC[C@H]2c2cnccn2)O[C@]12C[C@@H](Oc1ncnn3cccc13)C2 [Example 9.45, (1s,3S,5′S,7a′R)-5′-(pyrazin-2-yl)-3-(pyrrolo[2,1-f][1,2,4]triazin-4-yloxy)tetrahydro-3′H-spiro[cyclobutane-1,2′-pyrrolo[2,1-b]oxazol]-3′-one]
24 | 15 nM | O=C1N2[C@@H](CC[C@H]2c2cnccn2)O[C@]12C[C@H](Oc1ncnn3cccc13)C2 [Example 9.46, (1r,3R,5′S,7a′R)-5′-(pyrazin-2-yl)-3-(pyrrolo[2,1-f][1,2,4]triazin-4-yloxy)tetrahydro-3′H-spiro[cyclobutane-1,2′-pyrrolo[2,1-b]oxazol]-3′-one]
